US6313090A, “Methods for treating parasitic infection using thiopeptides” (The United States of America as represented by the …, priority 2000, dated 2001)
Read-outs that look alike come from different tables or passages of the source.

System: C. parvum GCH1 oocysts
Experiment: Intact C. parvum oocyst assay on MDBKF5D2 cell monolayers, immunofluorescence
Format: cell-based
Settings: for inhibition at 2000 µg/mL / inhibition at 250 µg/mL / inhibition at 500 µg/mL / inhibition at 1000 µg/mL: Cryptosporidium parvum
Method: In vitro doses of drugs. Thiostrepton (Calbiochem) was dissolved in sterile complete Dulbecco's Modified Eagle Medium (DMEM) supplemented with dimethyl sulfoxide (DMSO) at 0.2% and tested at concentrations of 800, 400, 200, and 100, 10, 1 and 0.1 μg/ml.
(§1) Intact C. parvum oocyst asset 3.0×10^4 C. parvum GCH1 oocysts per well were incubated in the above-mentioned concentrations of drug at 37° C. (8% CO2) on confluent MDBKF5D2 cell monolayers in 96 well microtiter plates. The level of infection in each well was determined and analyzed by immunofluorescence assay at 48 hours, using C. parvum sporozoite rabbit anti-serum (0.1%) and fluorescein-conjugated goat anti-rabbit antibody (1.0%). Percent inhibition was calculated by subtracting the mean parasite/drug from the mean parasitelmedium, divided by the mean parasite/medium, all of which was multiplied by 100. The analysis was performed using MCID and an inverted microscope.
In vitro doses of drugs. Thiostrepton (Calbiochem) and Phavic (NTZ) were dissolved in sterile complete Dulbecco's Modified Eagle Medium (DMEM) supplemented with dimethyl sulfoxide (DMSO) at 0.2% and tested at concentrations of 800, 400, 200, and 100 μg/ml. NTZ was tested at concentrations of 100, 10, 1 and 0.1 μg/ml. Paromomycin (Sigma) was dissolved in DMEM and tested at concentrations of 2000, 1000, 500 and 250 μg/ml.
as §1, with “assay .” for “asset”, “plates. For some monolayers, the oocysts were incubated in DMEM on the cell monolayers for four hours, at which time the monolayers were washed and then drug was added to the wells.” for “plates.”, “parasite/medium,” for “parasitelmedium,”
In vitro doses of drugs. Thiostrepton (Calbiochem), Phavic (NTZ) were dissolved in sterile complete Dulbecco's Modified Eagle Medium (DMEM) supplemented with dimethyl sulfoxide (DMSO) at 0.2%. Thiostrepton was tested at a concentration of 800 μg/ml. NTZ was tested at a concentration of 10 μg/ml. Paromomycin was dissolved in DMEM and tested at 2000 μg/ml. Cell monolayers were infected and washed, followed by the addition of drug at time intervals of 0, 2, 4, 8 and 24 hours.
as §1, with “assay.” for “asset”, “analyze” for “analyzed”, “parasite/medium,” for “parasitelmedium,”

## NC[C@@H]1O[C@H](O[C@H]2[C@@H](O)[C@H](O[C@@H]3[C@@H](O)[C@H](N)C[C@H](N)[C@H]3O[C@H]3O[C@H](CO)[C@@H](O)[C@H](O)[C@H]3N)O[C@@H]2CO)[C@H](N)[C@@H](O)[C@@H]1O [PRM, paromomycin]
0 h, Table 5, 2000 μg/ml, drug added at 0 hrs, read-out: Inhibition Percent
  inhibition at 2000 µg/mL: 77.4%
0 h, Table 5, 2000 μg/ml, drug added at 0 hrs, read-out: Inhibition Score
  inhibition at 2000 µg/mL: 71 to 90%
2 h, Table 5, 2000 μg/ml, drug added at 2 hrs, read-out: Inhibition Percent
  inhibition at 2000 µg/mL: 89.4%
2 h, Table 5, 2000 μg/ml, drug added at 2 hrs, read-out: Inhibition Score
  inhibition at 2000 µg/mL: 71 to 90%
4 h, Table 4 Washed at 4 hours, 250 μg/ml, read-out: Inhibition Percent
  inhibition at 250 µg/mL: 59.3%
4 h, Table 4 Washed at 4 hours, 250 μg/ml, read-out: Inhibition Score
  inhibition at 250 µg/mL: 56 to 70%
4 h, Table 4 Washed at 4 hours, 500 μg/ml, read-out: Inhibition Percent
  inhibition at 500 µg/mL: 69.2%
4 h, Table 4 Washed at 4 hours, 500 μg/ml, read-out: Inhibition Score
  inhibition at 500 µg/mL: 56 to 70%
4 h, Table 4 Washed at 4 hours, 1000 μg/ml, read-out: Inhibition Percent
  inhibition at 1000 µg/mL: 79.2%
4 h, Table 4 Washed at 4 hours, 1000 μg/ml, read-out: Inhibition Score
  inhibition at 1000 µg/mL: 71 to 90%
4 h, Table 4 Washed at 4 hours, 2000 μg/ml, read-out: Inhibition Percent
  inhibition at 2000 µg/mL: 82.5%
4 h, Table 4 Washed at 4 hours, 2000 μg/ml, read-out: Inhibition Score
  inhibition at 2000 µg/mL: 71 to 90%
4 h, Table 5, 2000 μg/ml, drug added at 4 hrs, read-out: Inhibition Percent
  inhibition at 2000 µg/mL: 79%
4 h, Table 5, 2000 μg/ml, drug added at 4 hrs, read-out: Inhibition Score
  inhibition at 2000 µg/mL: 71 to 90%
8 h, Table 5, 2000 μg/ml, drug added at 8 hrs, read-out: Inhibition Percent
  inhibition at 2000 µg/mL: 72.2%
8 h, Table 5, 2000 μg/ml, drug added at 8 hrs, read-out: Inhibition Score
  inhibition at 2000 µg/mL: 71 to 90%
24 h, Table 5, 2000 μg/ml, drug added at 24 hrs, read-out: Inhibition Percent
  inhibition at 2000 µg/mL: 27%
24 h, Table 5, 2000 μg/ml, drug added at 24 hrs, read-out: Inhibition Score
  inhibition at 2000 µg/mL: 0 to 30%
Table 1, 2000 μg/ml, read-out: Inhibition Percent
  inhibition at 2000 µg/mL: 73.2%
Table 1, 2000 μg/ml, read-out: Inhibition Score
  inhibition at 2000 µg/mL: 71 to 90%
Table 2, 2 mg/ml, read-out: Inhibition Percent
  inhibition at 2000 µg/mL: 69.7%
Table 2, 2 mg/ml, read-out: Inhibition Score
  inhibition at 2000 µg/mL: 56 to 70%
Table 3 Unwashed, 250 μg/ml, read-out: Inhibition Percent
  inhibition at 250 µg/mL: 68%
Table 3 Unwashed, 250 μg/ml, read-out: Inhibition Score
  inhibition at 250 µg/mL: 56 to 70%
Table 3 Unwashed, 500 μg/ml, read-out: Inhibition Percent
  inhibition at 500 µg/mL: 71.9%
Table 3 Unwashed, 500 μg/ml, read-out: Inhibition Score
  inhibition at 500 µg/mL: 71 to 90%
Table 3 Unwashed, 1000 μg/ml, read-out: Inhibition Percent
  inhibition at 1000 µg/mL: 79.3%
Table 3 Unwashed, 1000 μg/ml, read-out: Inhibition Score
  inhibition at 1000 µg/mL: 71 to 90%
Table 3 Unwashed, 2000 μg/ml, read-out: Inhibition Percent
  inhibition at 2000 µg/mL: 81.9%
Table 3 Unwashed, 2000 μg/ml, read-out: Inhibition Score
  inhibition at 2000 µg/mL: 71 to 90%
Table 6, 2 mg/ml, read-out: Inhibition Percent
  inhibition at 2000 µg/mL: 76.3%
Table 6, 2 mg/ml, read-out: Inhibition Score
  inhibition at 2000 µg/mL: 71 to 90%
Table 1, 2000 μg/ml
  Parasite Count: 278.06
Table 2, 2 mg/ml
  Inhibition Percent: 76.61%
  Inhibition Score: 3 (3: 71-90%)
  Parasite Count: 423.81
Table 2, 2 mg/ml, listed as PRM/DMSO
  Parasite Count: 369.81
Table 3 Unwashed, 250 μg/ml
  Parasite Count: 453.94
Table 3 Unwashed, 500 μg/ml
  Parasite Count: 398.31
Table 3 Unwashed, 1000 μg/ml
  Parasite Count: 293.56
Table 3 Unwashed, 2000 μg/ml
  Parasite Count: 256.38
Table 4 Washed at 4 hours, 250 μg/ml
  Parasite Count: 492.13
Table 4 Washed at 4 hours, 500 μg/ml
  Parasite Count: 372.44
Table 4 Washed at 4 hours, 1000 μg/ml
  Parasite Count: 251.88
Table 4 Washed at 4 hours, 2000 μg/ml
  Parasite Count: 211.38
Table 5, 2000 μg/ml, drug added at 0 hrs
  Parasite Count: 287.63
Table 5, 2000 μg/ml, drug added at 2 hrs
  Parasite Count: 134.94
Table 5, 2000 μg/ml, drug added at 4 hrs
  Parasite Count: 267.25
Table 5, 2000 μg/ml, drug added at 8 hrs
  Parasite Count: 354.06
Table 5, 2000 μg/ml, drug added at 24 hrs
  Parasite Count: 929.19
Table 6, 2 mg/ml
  Parasite Count: 325.75
Intracellular stages only
  activity when drug is added 24 hours after infection: activity drops
